According to patent US20110190503A1, “Thiazolopyridin-2-yloxy-phenyl and thiazolopyrazin-2-yloxy-phenyl amines as modulators of leukotriene A4 hydrolase” (Janssen Pharmaceutical NV, priority 2008, published 2011):
pIC50: −log10 of the molar value. Where a name gives a salt, the structure may show the parent alone.

Biological target: T1, recombinant human LTA4 hydrolase (rhLTA4H) (Homo sapiens, UniProt P09960)
T1 construct: made in house; host or cells: Spodoptera frugiperda (Sf-9) cells, recombinant baculovirus (pFastBac1)
T1 sequence (P09960 1-611): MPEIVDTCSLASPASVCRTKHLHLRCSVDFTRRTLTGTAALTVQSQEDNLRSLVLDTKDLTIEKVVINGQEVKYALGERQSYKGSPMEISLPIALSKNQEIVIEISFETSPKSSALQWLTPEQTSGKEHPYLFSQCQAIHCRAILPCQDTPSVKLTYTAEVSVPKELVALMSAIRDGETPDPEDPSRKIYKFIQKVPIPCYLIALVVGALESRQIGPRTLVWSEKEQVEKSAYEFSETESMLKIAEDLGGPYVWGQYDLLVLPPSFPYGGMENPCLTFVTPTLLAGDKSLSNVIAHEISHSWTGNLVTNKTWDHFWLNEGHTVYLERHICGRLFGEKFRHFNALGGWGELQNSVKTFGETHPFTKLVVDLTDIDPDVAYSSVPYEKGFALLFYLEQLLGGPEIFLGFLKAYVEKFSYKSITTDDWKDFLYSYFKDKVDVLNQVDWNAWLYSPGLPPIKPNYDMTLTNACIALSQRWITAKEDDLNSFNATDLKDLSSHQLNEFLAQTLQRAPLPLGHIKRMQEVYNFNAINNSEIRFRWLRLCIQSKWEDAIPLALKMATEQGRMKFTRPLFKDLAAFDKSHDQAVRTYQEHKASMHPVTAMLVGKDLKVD
Assay: Recombinant human LTA4 hydrolase assay for LTA4 hydrolase inhibitor activity
Format: biochemical
Details: rhLTA4H, LTA4 substrate, LTB4 by immunoassay; single determination or average; read-out: IC50
Description: Assay 1: Recombinant Human LTA4 Hydrolase Assay for LTA4 Hydrolase Inhibitor Activity
Compounds of the present invention were tested for LTA4 hydrolase inhibitor activity against recombinant human LTA4 hydrolase (rhLTA4H). Vectors were prepared and used to express rhLTA4H essentially as follows: LTA4 hydrolase encoding DNA was amplified by polymerase chain reaction (PCR) using a human placental cDNA library as a template. […] The amplified 1.9 kb DNA fragment encoding LTA4 hydrolase was isolated and cloned into the pFastBac1 vector (Invitrogen). Recombinant baculovirus was generated as described by the manufacturer, and used to infect Spodoptera frugiperda (Sf-9) cells. […] The purified enzyme solution was adjusted to contain 0.29 mg/mL LTA4 hydrolase, 50 mM Tris (pH 8.0), 150 mM NaCl, 5 mM dithiothreitol, 50% glycerol, and EDTA-free Complete protease inhibitor cocktail (Roche).
LTA4 substrate was prepared from the methyl ester of LTA4 (Cayman Chemical) by treatment with 67 equiv of NaOH under nitrogen at rt for 40 min. The LTA4 substrate in its free acid form was kept frozen at −80° C. until needed. Each compound was diluted to different concentrations in assay buffer (from Assay Designs) containing 10% DMSO. A 25-μL aliquot of each compound dilution was incubated for 10 min at rt with an equal volume of assay buffer containing 10 ng of recombinant human LTA4H. The solution was then adjusted to 200 μL with assay buffer. […] Each reaction was carried out at rt for 30 min. The reaction was stopped by diluting 10 μL of the reaction mixture with 200 μL of assay buffer. LTB4 was quantified in the diluted sample by a commercially available enzyme-linked immunoassay (Cayman Chemical Co.), as recommended by the manufacturer. Positive controls, under essentially identical conditions but without addition of an inhibitor compound, and negative controls, containing all assay components except enzyme, were routinely run in each experiment. IC50 values were determined by nonlinear regression of the activity data at different compound concentrations using Graphpad Prism 4.0, one site binding competition.
The values presented here are the result of a single determination or an average of two or more determinations, as indicated in parentheses following each value. For compounds tested three or more times, the average value is followed by the standard deviation

Row | SMILES | pIC50
1 | CC(=O)N1[C@@H]2CC[C@H]1C[C@H](NCc1ccc(Oc3nc4ncc(C)cc4s3)cc1)C2 [Example 181, meso-(3-exo)-8-Acetyl-N-({4-[(6-methyl[1,3]thiazolo[4,5-b]pyridin-2-yl)oxy]phenyl}methyl)-8-azabicyclo[3.2.1]octan-3-amine] | 6.48
2 | CCCN(Cc1ccc(Oc2nc3cnccc3s2)cc1)CC1CC1 [Example 186, N-(Cyclopropylmethyl)-N-{[4-([1,3]thiazolo[4,5-c]pyridin-2-yloxy)phenyl]methyl}propan-1-amine] | 6.58
3 | O=C(c1cccs1)N1CCN(Cc2ccc(Oc3nc4ncc(Cl)cc4s3)cc2)CC1 [Example 187, 6-Chloro-2-[(4-{[4-(2-thienylcarbonyl)piperazin-1-yl]methyl}phenyl)oxy][1,3]thiazolo[4,5-b]pyridine] | 6.54
4 | Clc1cnc2nc(Oc3ccc(CN4CCSCC4)cc3)sc2c1 [Example 189, 6-Chloro-2-{[4-(thiomorpholin-4-ylmethyl)phenyl]oxy}[1,3]thiazolo[4,5-b]pyridine] | 6.51
5 | c1cc(C2CCN(Cc3ccc(Oc4nc5cnccc5s4)cc3)CC2)ccn1 [Example 190, 2-({4-[(4-Pyridin-4-ylpiperidin-1-yl)methyl]phenyl}oxy)[1,3]thiazolo[4,5-c]pyridine] | 6.34
6 | O=C(NC1CCN(CCc2ccc(Oc3nc4ccncc4s3)cc2)CC1)C1CC1 [Example 192, N-(1-{2-[4-([1,3]Thiazolo[5,4-c]pyridin-2-yloxy)phenyl]ethyl}piperidin-4-yl)cyclopropanecarboxamide] | 6.29
7 | CS(=O)(=O)N[C@@H]1CC2CC[C@@H](C1)N2CCc1ccc(Oc2nc3cccnc3s2)cc1 [Example 194, meso-N-[(3-exo)-8-{2-[4-([1,3]Thiazolo[5,4-b]pyridin-2-yloxy)phenyl]ethyl}-8-azabicyclo[3.2.1]oct-3-yl]methanesulfonamide] | 7.04
8 | O=C(c1ccc(Cl)cc1)C1CCN(CCc2ccc(Oc3nc4cnccc4s3)cc2)CC1 [Example 195, (4-Chlorophenyl)(1-{2-[4-([1,3]thiazolo[4,5-c]pyridin-2-yloxy)phenyl]ethyl}piperidin-4-yl)methanone] | 5.86
9 | O=C(C1CC1)N1CCN(CCc2ccc(Oc3nc4ncc(Cl)cc4s3)cc2)CC1 [Example 197, 6-Chloro-2-[(4-{2-[4-(cyclopropylcarbonyl)piperazin-1-yl]ethyl}phenyl)oxy][1,3]thiazolo[4,5-b]pyridine] | 6.44
10 | Cc1cnc2nc(Oc3ccc(CCN4CCC(C(=O)N5CCCC5)CC4)cc3)sc2c1 [Example 198, 6-Methyl-2-[(4-{2-[4-(pyrrolidin-1-ylcarbonyl)piperidin-1-yl]ethyl}phenyl)oxy][1,3]thiazolo[4,5-b]pyridine] | 6.76
11 | NC(=O)N[C@@H]1C[C@H]2CC[C@@H](C1)N2Cc1ccc(Oc2nc3ccncc3s2)cc1 [Example 200, meso-1-{(3-exo)-8-[4-([1,3]Thiazolo[5,4-c]pyridin-2-yloxy)benzyl]-8-azabicyclo[3.2.1]oct-3-yl}urea] | 6.43
12 | NC(=O)N1[C@@H]2CC[C@H]1C[C@H](NCc1ccc(Oc3nc4cccnc4s3)cc1)C2 [Example 201, meso-(3-exo)-3-{[4-([1,3]Thiazolo[5,4-b]pyridin-2-yloxy)benzyl]amino}-8-azabicyclo[3.2.1]octane-8-carboxamide] | 6.05
13 | NC(=O)N1[C@@H]2CC[C@H]1CN(Cc1ccc(Oc3nc4cnccc4s3)cc1)C2 [Example 202, meso-3-[4-([1,3]Thiazolo[4,5-c]pyridin-2-yloxy)benzyl]-3,8-diazabicyclo[3.2.1]octane-8-carboxamide] | ~5.05
14 | Cc1ccnc2nc(Oc3ccc(CN4C[C@H]5CC[C@@H](C4)N5C(N)=O)cc3)sc12 [Example 203, meso-3-{4-[(7-Methyl[1,3]thiazolo[4,5-b]pyridin-2-yl)oxy]benzyl}-3,8-diazabicyclo[3.2.1]octane-8-carboxamide] | 6.17
15 | NCCCN(Cc1ccc(Oc2nc3ccncc3s2)cc1)CC1CC1 [Example 204, N-(Cyclopropylmethyl)-N-[4-([1,3]thiazolo[5,4-c]pyridin-2-yloxy)benzyl]propane-1,3-diamine hydrochloride] | 6.24
16 | CN1CCN(Cc2ccc(Oc3nc4cccnc4s3)cc2)CCC1=O [Example 207, 4-Methyl-1-[4-([1,3]thiazolo[5,4-b]pyridin-2-yloxy)benzyl]-1,4-diazepan-5-one] | 5.73
17 | OCCCN(CCOc1ccc(Oc2nc3ccncc3s2)cc1)C1CC1 [Example 208, 3-(Cyclopropyl{2-[4-([1,3]thiazolo[5,4-c]pyridin-2-yloxy)phenoxy]ethyl}amino)propan-1-ol] | 5.41
18 | CC(=O)N1[C@@H]2CC[C@H]1CN(CCc1ccc(Oc3nc4nccc(C)c4s3)cc1)C2 [Example 209, meso-2-(4-{2-[8-Acetyl-3,8-diazabicyclo[3.2.1]oct-3-yl]ethyl}phenoxy)-7-methyl[1,3]thiazolo[4,5-b]pyridine] | 6.80

Now those with a higher pIC50, led by results:

Row | pIC50 | SMILES
19 | 7.06 | CCCN(CCC)CCc1ccc(Oc2nc3cnccc3s2)cc1 [Example 196, N-Propyl-N-{2-[4-([1,3]thiazolo[4,5-c]pyridin-2-yloxy)phenyl]ethyl}propan-1-amine]
20 | 7.14 | NC(=O)N1C[C@H]2C[C@@H]1CN2Cc1ccc(Oc2nc3ncc(Cl)cc3s2)cc1 [Example 191, (1R,4R)-5-({4-[(6-Chloro[1,3]thiazolo[4,5-b]pyridin-2-yl)oxy]phenyl}methyl)-2,5-diazabicyclo[2.2.1]heptane-2-carboxamide]
21 | 7.15 | FC1CCN(CCc2ccc(Oc3nc4nccnc4s3)cc2)CC1 [Example 180, 2-({4-[2-(4-Fluoropiperidin-1-yl)ethyl]phenyl}oxy)[1,3]thiazolo[4,5-b]pyrazine]
22 | 7.17 | Cc1cnc2nc(Oc3ccc(CN4CCN(C5CCC5)CC4)cc3)sc2c1 [Example 183, 2-({4-[(4-Cyclobutylpiperazin-1-yl)methyl]phenyl}oxy)-6-methyl[1,3]thiazolo[4,5-b]pyridine]
23 | 7.24 | NC(=O)N1C[C@@H]2C[C@H]1CN2Cc1ccc(Oc2nc3ncc(Cl)cc3s2)cc1 [Example 193, (1S,4S)-5-({4-[(6-Chloro[1,3]thiazolo[4,5-b]pyridin-2-yl)oxy]phenyl}methyl)-2,5-diazabicyclo[2.2.1]heptane-2-carboxamide]
24 | 7.30 | CS(=O)(=O)N1CC2CN(Cc3ccc(Oc4nc5ncc(Cl)cc5s4)cc3)CC2C1 (stereo not shown) [Example 188, 6-Chloro-2-[(4-{[5-(methylsulfonyl)hexahydropyrrolo[3,4-c]pyrrol-2(1H)-yl]methyl}phenyl)oxy][1,3]thiazolo[4,5-b]pyridine]
25 | 7.31 | Cc1ccnc2nc(Oc3ccc(CN4[C@@H]5CC[C@H]4CN(S(C)(=O)=O)C5)cc3)sc12 [Example 205, meso-7-Methyl-2-(4-{[3-(methylsulfonyl)-3,8-diazabicyclo[3.2.1]oct-8-yl]methyl}phenoxy)[1,3]thiazolo[4,5-b]pyridine]
26 | 7.38 | NC(=O)N[C@@H]1C[C@H]2CC[C@@H](C1)N2Cc1ccc(Oc2nc3nccnc3s2)cc1 [Example 199, meso-1-{(3-exo)-8-[4-([1,3]Thiazolo[4,5-b]pyrazin-2-yloxy)benzyl]-8-azabicyclo[3.2.1]oct-3-yl}urea]
27 | 7.46 | Cc1ccnc2nc(Oc3ccc(CN4CCC(NC(=O)c5ccncc5)CC4)cc3)sc12 [Example 206, N-(1-{4-[(7-Methyl[1,3]thiazolo[4,5-b]pyridin-2-yl)oxy]benzyl}piperidin-4-yl)pyridine-4-carboxamide]
28 | 8.22 | NC(=O)N1[C@@H]2CC[C@H]1CN(CCc1ccc(Oc3nc4ncccc4s3)cc1)C2 [Example 210, meso-3-{2-[4-([1,3]Thiazolo[4,5-b]pyridin-2-yloxy)phenyl]ethyl}-3,8-diazabicyclo[3.2.1]octane-8-carboxamide hydrochloride]
